For this assay, the target named is TBPS binding. The assay can be described thus: Steroid inhibition of TBPS binding.
Where [1] appears, read: Table II-2, read-out: TBPS IC50 (μm).

Where two headings read alike, the source gives them in different places. Bounds are passed on as bounds.

Seven compounds from patent US20220315621A1, “COMPOSITIONS AND METHODS FOR TREATING CNS DISORDERS” (priority 2017, published 2022) can be followed below.

Regarding `C[C@]1(O)CCC[C@H]2[C@H](CC[C@@H]3[C@@H]2CC[C@]2(C)[C@@H](C(=O)Cn4cc(C#N)cn4)CC[C@@H]32)C1` [II-E10, 1-(2-((1S,3aS,3bR,5aR,7S,10aS,10bR,12aS)-7-hydroxy-7,12a-dimethyloctadecahydrocyclohepta[a]cyclopenta[f]naphthalen-1-yl)-2-oxoethyl)-1H-pyrazole-4-carbonitrile], the IC50 under setting [1] fell in the range of 100 to 1000 nM.
Take `C[C@@]1(O)CC[C@H]2[C@H](C[C@@H]3[C@@H]2CC[C@]2(C)[C@@H](C(=O)Cn4cc(C#N)cn4)CC[C@@H]32)C1` [IV-A16, 1-(2-((3S,3aS,5aR,5bS,8R,9aR,10aR,10bS)-8-hydroxy-3a,8-dimethylhexadecahydrocyclopenta[a]fluoren-3-yl)-2-oxoethyl)-1H-pyrazole-4-carbonitrile]: under “Table IV-2, read-out: TBPS IC50”, the IC50 was in the range of 10 to 100 nM.
For the compound `CC(=O)[C@H]1CC[C@H]2[C@@H]3CC[C@@H]4CC[C@](C)(O)CC[C@@H]4[C@H]3CC[C@]12C` [II-F8, 1-((1S,3aS,3bR,5aR,8S,10aS,10bR,12aS)-8-hydroxy-8,12a-dimethyloctadecahydrocyclohepta[a]cyclopenta[f]naphthalen-1-yl)ethan-1-one], the IC50 under setting [1] was 100 to 1000 nM.
Regarding `C[C@]1(O)CCC2=CC[C@H]3[C@@H]4CC[C@H](C(=O)Cn5cc(C#N)cn5)[C@@]4(C)CC[C@@H]3[C@@]2(C)CC1` [II-F3, 1-(2-((1S,3aS,3bS,8S,10aR,10bS,12aS)-8-hydroxy-8,10a,12a-trimethyl-1,2,3,3a,3b,4,6,7,8,9,10,10a,10b,11,12,12a-hexadecahydrocyclohepta[a]cyclopenta[f]naphthalen-1-yl)-2-oxoethyl)-1H-pyrazole-4-carbonitrile], the IC50 under setting [1] was < 10 nM.
For the compound `C[C@@]1(O)CC[C@H]2[C@@H](CCC[C@@H]3[C@@H]2CC[C@]2(C)[C@@H](C(=O)Cn4cc(C#N)cn4)CC[C@@H]32)C1` [III-A15, 1-(2-((1S,3aS,3bR,6aS,8R,10aS,10bR,12aS)-8-hydroxy-8,12a-dimethyloctadecahydrobenzo[3,4]cyclohepta[1,2-e]inden-1-yl)-2-oxoethyl)-1H-pyrazole-4-carbonitrile], the IC50 (Table III-1, read-out: TBPS IC50) lay in the range of 100 to 1000 nM.
Regarding `C[C@]1(O)C[C@H]2CC[C@@H]3[C@H](CC[C@]4(C)[C@@H](C(=O)Cn5cc(C#N)cn5)CC[C@@H]34)[C@H]2C1` [II-G10], under setting [1], the 50% inhibitory concentration (IC50) was in the range of 100 to 1000 nM.
Consider `CC(=O)[C@H]1CC[C@H]2[C@@H]3CC=C4CC[C@](C)(O)CC[C@]4(C)[C@H]3CC[C@]12C` [II-C2a, 1-((1S,3aS,3bS,8S,10aR,10bS,12aS)-8-hydroxy-8,10a,12a-trimethyl-1,2,3,3a,3b,4,6,7,8,9,10,10a,10b,11,12,12a-hexadecahydrocyclohepta[a]cyclopenta[f]naphthalen-1-yl)ethan-1-one], for which the IC50 under setting [1] is 10 to 100 nM.
